According to patent US9730906B2, “α-derivatives of cis-monounsaturated fatty acids for use as medicines” (UNIVERSITAT DE LES ILLES BALEARS, priority 2008, dated 2017):
Where two headings read alike, the source gives them in different places.

Columns and labels:
A549 cells = assay: Growth/viability of A549 lung cancer cells in culture (cell count); format: cell-based, human; settings: for tumour cell growth (number of cells, percent of untreated): 150 μM, 48 hours, A549
Method: FIG. 3A. Cancer cells (A549) were treated with various concentrations of OHOD and MOD11 to determine whether the effect was dependent on the concentration. […] These cells were treated with different concentrations (0-400 μM) of OHOD and MOD11 and the number of cells was determined by flow cytometry.
FIG. 3B. Cancer cells (A549) were treated with compounds indicated on the horizontal axis for 48 hours at 150 μM. Then, the cells were counted and their number and percent of untreated (control) represented on the vertical axis.
Also, a series of α-derivatives of cis-monounsaturated fatty acids were used to investigate their effectiveness in cancer treatment. Two types of experiment were performed. Firstly, the dependency of the anti-tumour effect on concentration was investigated. To perform these experiments, human lung cancer cells (A549) were cultivated in RPMI medium, supplemented with 10% foetal bovine […], 10 mM Hepes (pH 7.4), 2 mM glutamine, 2 g/l bicarbonate, 1 g/l glucose, 100 units/ml penicillin, 0.1 mg/ml streptomycin, 0.25 μg/ml Amphotericin B, at 37° C. and in the presence of 5% CO2. In a first experimental series, these cells were treated with various concentrations (0-400 μM) of OHOD and MOD11 and the number of cells was determined by flow cytometry (FIG. 3A). […] In a second series, the anti-tumour effectiveness on A549 lung cancer cells was investigated at a single concentration (150 μM) and a time of 48 hours (FIG. 3B). […] Obviously, among the previous molecules, some lacked both modifications on the α-carbon and the double bond in cis configuration (EO, HDO, ODO) and had no therapeutic effect. […]

SF767 human tumour cells = assay: Growth of SF767 tumour cells in culture; format: cell-based
Method: In a second experimental series, designed to discover whether these molecules are effective in treatment of different types of tumours, the effect of OHOD at various concentrations on human cells of different types of cancer was studied. These experiments were performed as described before, except that the M220 and HT-29 cell lines were cultured in DMEM medium and the MDA-MB-231 line was incubated in Leibowitz L-15 medium supplemented with 15% foetal bovine […]. […] Where the nature of the tumour process requires, application can be topical (use on the skin of active products for the treatment of melanoma and other cutaneous abnormalities of cancerous nature), which can be considered as cosmetic treatments when attempts are made to correct aesthetic defects.

hypertensive rats = assay: Arterial pressure in hypertensive rats after 8-day treatment (Table 5); format: in vivo, rat
[1] = Levels of cholesterol, triglycerides and glucose in rats after oral treatment; format: in vivo, rat
Method: FIG. 13. The four bars, from left to right respectively, show the effect of treatments with vehicle (control, first bar), OHOD at 200 mg/kg (second bar), OHOD at 400 mg/kg (third bar) and OHOD at 600 mg/kg (fourth bar) on the cholesterol levels (group of four bars to the left), triglycerides (group of four bars in the middle) and glucose (group of four bars to the right). The treatments were oral in all cases and were maintained for 30 days. The values indicated are the average obtained in 6 animals per group.
FIG. 14. Effect of treatment with vehicle (control) or with the fatty acids of the invention (600 mg/kg) on the levels of cholesterol, triglycerides and glucose. The values indicated are the average of the values obtained in 6 animals. Each group of three bars represents treatment with a different fatty acid with the left bar corresponding to cholesterol, the middle bar to triglycerides and the right bar to glucose.
Metabolic diseases form a set of pathologies characterised by the accumulation or deficit of certain molecules (cholesterol, triglycerides, glucose, etc.) in the serum or tissues. These changes are the reflection of dysfunctions that are normally associated with errors in the activity of certain enzymes or in the control of these proteins. Among the most important metabolopathies are hypercholesterolemia (elevated levels of cholesterol), hypertriglyceridemia (elevated levels of triglycerides) and diabetes (elevated levels of glucose). These pathologies have high rates of incidence, morbidity and mortality, so that treatment is a first order necessity. […] For these experiments, the dose of fatty acid indicated (0, 200, 400 and 600 mg/kg) was supplied daily via the oral route. At the end of the treatment (30 days), blood was sampled from control and treated animals (n=6) and the levels of cholesterol, triglycerides and glucose were determined using standard colorimetric methods.
(§1) In a further experiment, the effect of various molecules at a single dose (600 mg/kg) was investigated. […] In this sense, modification on the α-carbon and the double bond in cis configuration are crucial elements for producing the therapeutic effect indicated above. […] Finally, the effect of α-derivatives of cis-monounsaturated fatty acids on the prevention of obesity was investigated. For this, a model of rat obesity induced by a cafeteria diet, where the hypercaloric food increases the weight of the animals very markedly, was used. There were various experimental groups (see Table 3), each of which consisted of 6 female Wistar Kyoto rats of 250-300 g in weight. All the animals received a standard diet for 2 weeks. In addition, 2 of the groups received an oral preventative pre-treatment of vehicle and the other groups received 300 mg/kg of the fatty acids indicated below. Afterwards, one of the control groups was maintained on a standard diet (lean control) and the other was fed on a cafeteria diet (obese control). The treated animal groups were fed on the cafeteria diet. Preventative pre-treatment was maintained for all the groups. After two weeks on these diets, the lean control group had increased their body weight by an average of 16±16 g, while the obese control group had increased their body weight by an average of 43±17 g (statistically significance difference, p<0.01).

[2] = Body weight of rats on cafeteria diet, no pre-treatment (Table 5); format: in vivo, rat
Source text: (§2) The weight of treated animals was statistically less than the weight of obese control rats and statistically indistinguishable from that of lean control rats.

[3] = Rat obesity induced by cafeteria diet, preventative pre-treatment (Table 3); format: in vivo, Wistar Kyoto rats; settings: 300 mg/kg oral, after two weeks on cafeteria diet; obese control 308 ± 17, lean control 280 ± 16; * lower than obese controls, ‡ indistinguishable
Method: as §1, §2

[4] = concentration that reduces the number of cells to half
[5] = arterial pressure, hypertensive rats, 8-day treatment, 400 mg/kg oral
[6] = rats, daily dose of 600 mg/kg oral, untreated controls = 100%
[7] = cafeteria diet for 2 weeks, 300 mg/kg daily oral, no pre-treatment

Row | IC50 (A549 cells; [4]) [µM] | IC50 (SF767 human tumour cells; [4]) [µM] | Compound | PA (control 214 mmHg) (hypertensive rats; [5]) [mmHg] | % control CHO (cholesterol) [1, 6] [% control] | % control TG (triglycerides) [1, 6] [% control] | Body weight (g) (control = 311 g) [2, 7] | tumour cell growth (number of cells, percent of untreated) (A549 cells) | Final weight [3] | further results
1 | 153 | 179 | CCCCCCCC/C=C\CCCCCCC(C(C)=O)C(=O)O (stereo not drawn) [ACOD, α-Acetyl-cis-Δ9-octadecenoic] | 157 | 59 | 53 | 301 |  |  | 
2 |  |  | CCCCCCCC/C=C\CCCCCCC(OP(=O)(OCC)OCC)C(=O)O (stereo not drawn) [DEPOD, α-diethyl-phosphatidyl-cis-Δ9-octadecenoic] |  |  |  |  |  |  | IC50 (A549 cells): 57 µM; IC50 (SF767 human tumour cells): 99 µM; PA (control 214 mmHg) (hypertensive rats; rat, in vivo, po, 400 mg/kg): 147 mmHg; % control CHO (cholesterol) ([1]; rat, in vivo, po, 600 mg/kg): 58 % control; % control TG (triglycerides) ([1]; rat, in vivo, po, 600 mg/kg): 43 % control; Body weight (g) (control = 311 g) ([2]; rat, in vivo): 301 g
3 | 185 | 176 | CCCCCCCC/C=C\CCCCCCC(OC(C)=O)C(=O)OCC (stereo not drawn) [EE- ACOD] | 158 | 72 | 56 | 294 |  |  | 
4 | 77 | 82 | CCCCCCCC/C=C\CCCCCCC(OP(=O)(OCC)OCC)C(=O)OCC (stereo not drawn) [EE-DEPOD] | 168 | 69 | 49 | 295 |  |  | 
5 | 168 | 195 | CCCCCCCC/C=C\CCCCCCC(OC)C(=O)OCC (stereo not drawn) [EE-MOOD] | 154 | 64 | 66 | 297 |  |  | 
6 | 79 | 68 | CCCCCCCCC=CCCCCCCC(O)C(=O)OCC (stereo not drawn) [EE-OHOD] | 161 | 62 | 47 | 295 |  |  | 
7 |  |  | CCCCCCCCCCCCCCCCCCCC(=O)O [EO, Eicosanoic, reference compound] |  |  |  |  | did not show anti-tumour effectiveness | 298 ± 12‡ g | 
8 |  |  | CCCCCCCCCCCCCCCC(=O)O [HDO, Hexadecanoic, reference compound] |  |  |  |  | did not show anti-tumour effectiveness | 299 ± 15‡ g | 
9 | 124 | 132 | CCCCCCCC/C=C\CCCCCCC(OC(C)=O)C(=O)[O-].[Na+] (stereo not drawn) [Na-ACOD] | 166 | 49 | 35 | 298 |  |  | 
10 | 77 | 91 | CCCCCCCC/C=C\CCCCCCC(OC)C(=O)[O-].[Na+] (stereo not drawn) [Na-MOOD] | 131 | 63 | 68 | 272 |  |  | 
11 |  |  | CCCCCCCC/C=C/CCCCCCCC(=O)O [OD, Trans-Octadecenoic, reference compound] |  |  |  |  | did not show anti-tumour effectiveness | 311 ± 17‡ g | 
12 |  |  | CCCCCCCCCCCCCCCCCC(=O)O [ODO, Octadecanoic, reference compound] |  |  |  |  | did not show anti-tumour effectiveness | 301 ± 18‡ g | 
13 |  |  | CCCCCCCCCCCCCCCCC(O)C(=O)O (stereo not drawn) [OHS, α-Hydroxy-octadecanoic, reference compound] |  |  |  |  | lacked anti-tumour effectiveness | 314 ± 11‡ g | 
14 | 246 | 214 | CCCCCCCC/C=C\CCCCCCC(OC(C)=O)C(=O)OC (stereo not drawn) [OMe- ACOD] | 152 | 86 | 74 | 296 |  |  | 
15 | 66 | 43 | CCCCCCCC/C=C\CCCCCCC(OP(=O)(OCC)OCC)C(=O)OC (stereo not drawn) [OMe-DEPOD] | 175 | 63 | 45 | 293 |  |  | 
16 | 149 | 128 | CCCCCCCC/C=C\CCCCCCC(OC)C(=O)OC (stereo not drawn) [OMe-MOOD] | 143 | 77 | 69 | 296 |  |  | 
17 | 94 | 107 | CCCCCCCC/C=C\CCCCCCC(O)C(=O)OC (stereo not drawn) [OMe-OHOD] | 155 | 71 | 64 | 299 |  |  | 
18 |  |  | CCCCCCCC/C=C/CCCCCCC(O)C(=O)O (stereo not drawn) [tOHOD, α-Hydroxy-trans-octadecenoic, reference compound] |  |  |  |  | lacked anti-tumour effectiveness | 312 ± 19‡ g | 
19 |  |  | Cis-Docosenoic [DE, reference compound] |  |  |  |  | did not show anti-tumour effectiveness | 305 ± 12‡ g | 
20 |  |  | Cis-Eicosenoic [EE, reference compound] |  |  |  |  | did not show anti-tumour effectiveness | 301 ± 17‡ g | 
21 |  |  | Trans-Hexadecenoic [HD, reference compound] |  |  |  |  | did not show anti-tumour effectiveness | 309 ± 15‡ g | 

Row | Compound | IC50 (A549 cells; [4]) [µM] | IC50 (SF767 human tumour cells; [4]) [µM] | PA (control 214 mmHg) (hypertensive rats; [5]) [mmHg] | % control CHO (cholesterol) [1, 6] [% control] | % control TG (triglycerides) [1, 6] [% control] | Body weight (g) (control = 311 g) [2, 7] | tumour cell growth (number of cells, percent of untreated) (A549 cells) | Final weight [3] | further results
22 | CCCCCCCC/C=C\CCCCCCC(OP(=O)(OCC)OCC)C(=O)[O-].[Na+] (stereo not drawn) [Na-DEPOD] | 32 | 104 | 159 | 45 | 37 | 298 |  |  | 
